Measured values from PubChem BioAssay (NCI).
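How tested: cells in 96-well plates exposed to compound for 48 hours at five concentrations. TGI denotes the concentration required for complete inhibition of growth.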

Tests used:
Experiment in all cases: NCI anticancer screen, dose series, 48 h
PC-3 prostate = system: PC-3 prostate
HS 578T breast = system: HS 578T breast
SF-268 CNS = system: SF-268 CNS
MOLT-4 leukemia = system: MOLT-4 leukemia
NCI-H522 lung = system: NCI-H522 lung
NCI-H226 lung = system: NCI-H226 lung
ACHN renal = system: ACHN renal
SK-MEL-2 melanoma = system: SK-MEL-2 melanoma
RPMI-8226 leukemia = system: RPMI-8226 leukemia
NCI-H460 lung = system: NCI-H460 lung
COLO 205 colon = system: COLO 205 colon
A498 renal = system: A498 renal
DU-145 prostate = system: DU-145 prostate
LOX IMVI melanoma = system: LOX IMVI melanoma
OVCAR-8 ovarian = system: OVCAR-8 ovarian
U251 CNS = system: U251 CNS
EKVX NSCLC = system: EKVX NSCLC
IGROV1 ovarian = system: IGROV1 ovarian
HOP-92 NSCLC = system: HOP-92 NSCLC
HCT-116 colon = system: HCT-116 colon
MCF7 breast = system: MCF7 breast
OVCAR-4 ovarian = system: OVCAR-4 ovarian
SR leukemia = system: SR leukemia
HCT-15 colon = system: HCT-15 colon
SN12C renal = system: SN12C renal
M14 melanoma = system: M14 melanoma
CAKI-1 renal = system: CAKI-1 renal
OVCAR-3 ovarian = system: OVCAR-3 ovarian
SK-OV-3 ovarian = system: SK-OV-3 ovarian
786-0 renal = system: 786-0 renal
SNB-75 CNS = system: SNB-75 CNS
A549 NSCLC = system: A549 NSCLC
UO-31 renal = system: UO-31 renal
NCI/ADR-RES ovarian = system: NCI/ADR-RES ovarian
UACC-257 melanoma = system: UACC-257 melanoma
MDA-MB-231 breast = system: MDA-MB-231 breast
HCC-2998 colon = system: HCC-2998 colon
KM12 colon = system: KM12 colon
SNB-19 CNS = system: SNB-19 CNS
K-562 leukemia = system: K-562 leukemia
RXF 393 renal = system: RXF 393 renal
MALME-3M melanoma = system: MALME-3M melanoma
TK-10 renal = system: TK-10 renal
SF-295 CNS = system: SF-295 CNS
MDA-N = system: MDA-N
HT29 colon = system: HT29 colon
SW-620 colon = system: SW-620 colon
HOP-62 NSCLC = system: HOP-62 NSCLC
NCI-H23 lung = system: NCI-H23 lung
SK-MEL-28 melanoma = system: SK-MEL-28 melanoma
T-47D breast = system: T-47D breast
MDA-MB-435 = system: MDA-MB-435
OVCAR-5 ovarian = system: OVCAR-5 ovarian
CCRF-CEM leukemia = system: CCRF-CEM leukemia
BT-549 breast = system: BT-549 breast
UACC-62 melanoma = system: UACC-62 melanoma
SK-MEL-5 melanoma = system: SK-MEL-5 melanoma
SF-539 CNS = system: SF-539 CNS

Compound: O=C1C(c2c(O)[nH]c3ccc([N+](=O)[O-])cc23)=Nc2ccccc21
- TGI (PC-3 prostate): > 100 µM
- TGI (HS 578T breast): > 100 µM
- TGI (SF-268 CNS): > 100 µM
- TGI (MOLT-4 leukemia): > 100 µM
- TGI (NCI-H522 lung): > 100 µM
- TGI (NCI-H226 lung): > 100 µM
- TGI (ACHN renal): > 100 µM
- TGI (SK-MEL-2 melanoma): > 100 µM
- TGI (RPMI-8226 leukemia): > 100 µM
- TGI (NCI-H460 lung): > 100 µM
- TGI (COLO 205 colon): > 100 µM
- TGI (A498 renal): > 100 µM
- TGI (DU-145 prostate): > 100 µM
- TGI (LOX IMVI melanoma): > 100 µM
- TGI (OVCAR-8 ovarian): > 100 µM
- TGI (U251 CNS): 49.8 µM
- TGI (EKVX NSCLC): > 100 µM
- TGI (IGROV1 ovarian): > 100 µM
- TGI (HOP-92 NSCLC): > 100 µM
- TGI (HCT-116 colon): > 100 µM
- TGI (MCF7 breast): > 100 µM
- TGI (OVCAR-4 ovarian): > 100 µM
- TGI (SR leukemia): > 100 µM
- TGI (HCT-15 colon): > 100 µM
- TGI (SN12C renal): > 100 µM
- TGI (M14 melanoma): > 100 µM
- TGI (CAKI-1 renal): > 100 µM
- TGI (OVCAR-3 ovarian): > 100 µM
- TGI (SK-OV-3 ovarian): > 100 µM
- TGI (786-0 renal): > 100 µM
- TGI (SNB-75 CNS): 34.2 µM
- TGI (A549 NSCLC): > 100 µM
- TGI (UO-31 renal): > 100 µM
- TGI (NCI/ADR-RES ovarian): > 100 µM
- TGI (UACC-257 melanoma): > 100 µM
- TGI (MDA-MB-231 breast): 91.2 µM
- TGI (HCC-2998 colon): > 100 µM
- TGI (KM12 colon): > 100 µM
- TGI (SNB-19 CNS): > 100 µM
- TGI (K-562 leukemia): > 100 µM
- TGI (RXF 393 renal): 42.2 µM
- TGI (MALME-3M melanoma): > 100 µM
- TGI (TK-10 renal): 70.9 µM
- TGI (SF-295 CNS): > 100 µM
- TGI (MDA-N): > 100 µM
- TGI (HT29 colon): > 100 µM
- TGI (SW-620 colon): > 100 µM
- TGI (HOP-62 NSCLC): > 100 µM
- TGI (NCI-H23 lung): > 100 µM
- TGI (SK-MEL-28 melanoma): > 100 µM
- TGI (T-47D breast): > 100 µM
- TGI (MDA-MB-435): > 100 µM
- TGI (OVCAR-5 ovarian): > 100 µM
- TGI (CCRF-CEM leukemia): > 100 µM
- TGI (BT-549 breast): > 100 µM
- TGI (UACC-62 melanoma): > 100 µM
- TGI (SK-MEL-5 melanoma): > 100 µM

Compound: CC(C)OC(=O)[C@@H]1OC(C)(C)O[C@H]1C(=O)OC(C)C
- TGI (PC-3 prostate): > 100 µM
- TGI (HS 578T breast): > 100 µM
- TGI (SF-268 CNS): > 100 µM
- TGI (MOLT-4 leukemia): > 100 µM
- TGI (NCI-H522 lung): > 100 µM
- TGI (NCI-H226 lung): > 100 µM
- TGI (ACHN renal): > 100 µM
- TGI (SK-MEL-2 melanoma): > 100 µM
- TGI (RPMI-8226 leukemia): > 100 µM
- TGI (NCI-H460 lung): > 100 µM
- TGI (COLO 205 colon): > 100 µM
- TGI (A498 renal): > 100 µM
- TGI (DU-145 prostate): > 100 µM
- TGI (LOX IMVI melanoma): > 100 µM
- TGI (OVCAR-8 ovarian): > 100 µM
- TGI (U251 CNS): > 100 µM
- TGI (EKVX NSCLC): > 100 µM
- TGI (IGROV1 ovarian): > 100 µM
- TGI (HOP-92 NSCLC): > 100 µM
- TGI (HCT-116 colon): > 100 µM
- TGI (MCF7 breast): > 100 µM
- TGI (OVCAR-4 ovarian): > 100 µM
- TGI (SR leukemia): > 100 µM
- TGI (HCT-15 colon): > 100 µM
- TGI (SN12C renal): > 100 µM
- TGI (CAKI-1 renal): > 100 µM
- TGI (SK-OV-3 ovarian): > 100 µM
- TGI (786-0 renal): > 100 µM
- TGI (SNB-75 CNS): > 100 µM
- TGI (A549 NSCLC): > 100 µM
- TGI (UO-31 renal): > 100 µM
- TGI (NCI/ADR-RES ovarian): > 100 µM
- TGI (UACC-257 melanoma): > 100 µM
- TGI (MDA-MB-231 breast): > 100 µM
- TGI (HCC-2998 colon): > 100 µM
- TGI (KM12 colon): > 100 µM
- TGI (SNB-19 CNS): > 100 µM
- TGI (K-562 leukemia): > 100 µM
- TGI (RXF 393 renal): > 100 µM
- TGI (MALME-3M melanoma): > 100 µM
- TGI (TK-10 renal): > 100 µM
- TGI (SF-295 CNS): > 100 µM
- TGI (MDA-N): > 100 µM
- TGI (SF-539 CNS): > 100 µM
- TGI (HT29 colon): > 100 µM
- TGI (SW-620 colon): > 100 µM
- TGI (HOP-62 NSCLC): > 100 µM
- TGI (NCI-H23 lung): > 100 µM
- TGI (T-47D breast): > 100 µM
- TGI (MDA-MB-435): > 100 µM
- TGI (OVCAR-5 ovarian): > 100 µM
- TGI (CCRF-CEM leukemia): > 100 µM
- TGI (BT-549 breast): > 100 µM
- TGI (UACC-62 melanoma): > 100 µM
- TGI (SK-MEL-5 melanoma): > 100 µM
